Source: article PMC3272775 (Journal of Medicinal Chemistry, 2012)
“Also recorded” adds a separate entry of the source. Structures can show the parent of a compound that is named as a salt.

Columns and labels:
[1] = system: α4β2-nAChR from rat cerebral cortical membranes; conditions: ref [39], [40]; cited from earlier work
[2] = chronic and neuropathic pain; ref [45], [46]; cited from earlier work
α1β1γδ-nAChR = α1β1γδ-nAChR (Homo sapiens, UniProt P02708+P07510+Q07001); assay: 86Rb+ efflux assay in TE671/RD cells; format: cell-based
CYP2B6 = biological target: T1, CYP2B6 (Homo sapiens, UniProt P20813); assay: Multiple CYP inhibition assay in human liver microsomes, CYP2B6; format: in vitro ADME
T1 sequence (P20813 1-491): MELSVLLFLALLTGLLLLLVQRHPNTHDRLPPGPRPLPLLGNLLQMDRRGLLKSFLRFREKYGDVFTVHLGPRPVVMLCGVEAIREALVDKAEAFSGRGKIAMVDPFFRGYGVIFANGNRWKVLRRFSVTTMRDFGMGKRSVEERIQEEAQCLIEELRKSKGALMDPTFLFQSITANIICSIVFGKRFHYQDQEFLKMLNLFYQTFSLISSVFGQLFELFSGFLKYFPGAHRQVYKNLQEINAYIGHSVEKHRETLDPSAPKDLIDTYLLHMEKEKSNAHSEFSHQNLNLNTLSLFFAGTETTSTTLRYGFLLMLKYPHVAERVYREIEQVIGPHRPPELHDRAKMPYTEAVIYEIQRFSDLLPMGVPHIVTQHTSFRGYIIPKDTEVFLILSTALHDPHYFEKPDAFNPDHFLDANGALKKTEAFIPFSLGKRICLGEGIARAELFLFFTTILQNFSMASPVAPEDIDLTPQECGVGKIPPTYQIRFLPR

human α4β2-nAChR = human α4β2-nAChR (Homo sapiens, UniProt P17787+P43681); assay: 86Rb+ efflux assay in SH-EP1-hα4β2 cells; format: cell-based; conditions: efficacies similar to that of carbamylcholine
[3] = system: immobility in the mouse forced swim test; assay: Mouse forced swim test; format: in vivo
CYP2C19 = CYP2C19 (Homo sapiens, UniProt P33261); assay: Multiple CYP inhibition assay in human liver microsomes, CYP2C19; format: in vitro ADME
CYP1A2 = biological target: T2, CYP1A2 (Homo sapiens, UniProt P05177); assay: Multiple CYP inhibition assay in human liver microsomes, CYP1A2; format: in vitro ADME
T2 sequence (P05177 1-516): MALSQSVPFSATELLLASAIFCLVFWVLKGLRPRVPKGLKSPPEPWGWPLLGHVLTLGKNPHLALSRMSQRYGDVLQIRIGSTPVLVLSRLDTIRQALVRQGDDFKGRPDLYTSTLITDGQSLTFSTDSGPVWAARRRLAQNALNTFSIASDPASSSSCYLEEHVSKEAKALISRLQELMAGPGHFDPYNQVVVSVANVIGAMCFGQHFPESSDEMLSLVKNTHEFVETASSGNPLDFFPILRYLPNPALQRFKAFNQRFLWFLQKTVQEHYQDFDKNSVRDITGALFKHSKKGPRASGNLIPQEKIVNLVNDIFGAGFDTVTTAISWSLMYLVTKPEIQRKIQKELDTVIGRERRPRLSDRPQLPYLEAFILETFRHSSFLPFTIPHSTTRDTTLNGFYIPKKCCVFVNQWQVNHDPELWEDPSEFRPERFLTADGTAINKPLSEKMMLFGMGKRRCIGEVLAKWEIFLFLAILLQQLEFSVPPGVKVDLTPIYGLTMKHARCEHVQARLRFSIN

[4] = system: about 45 other CNS neurotransmitter receptors and transporters; assay: Broad-range screening; format: binding; conditions: 10 μM; about 45 receptors and transporters
CYP2D6 = CYP2D6 (Homo sapiens, UniProt P10635); assay: Multiple CYP inhibition assay in human liver microsomes, CYP2D6; format: in vitro ADME
CYP3A4 = CYP3A4 (Homo sapiens, UniProt P08684); assay: Multiple CYP inhibition assay in human liver microsomes, CYP3A4; format: in vitro ADME
α3β4*-nAChR = α3β4*-nAChR (Homo sapiens, UniProt P30926+P32297); assay: 86Rb+ efflux assay in SH-SY5Y cells; format: cell-based; conditions: efficacies similar to that of carbamylcholine
CYP2C9 = CYP2C9 (Homo sapiens, UniProt P11712); assay: Multiple CYP inhibition assay in human liver microsomes, CYP2C9; format: in vitro ADME
Chain of CYP2C9 (P11712 whole entry): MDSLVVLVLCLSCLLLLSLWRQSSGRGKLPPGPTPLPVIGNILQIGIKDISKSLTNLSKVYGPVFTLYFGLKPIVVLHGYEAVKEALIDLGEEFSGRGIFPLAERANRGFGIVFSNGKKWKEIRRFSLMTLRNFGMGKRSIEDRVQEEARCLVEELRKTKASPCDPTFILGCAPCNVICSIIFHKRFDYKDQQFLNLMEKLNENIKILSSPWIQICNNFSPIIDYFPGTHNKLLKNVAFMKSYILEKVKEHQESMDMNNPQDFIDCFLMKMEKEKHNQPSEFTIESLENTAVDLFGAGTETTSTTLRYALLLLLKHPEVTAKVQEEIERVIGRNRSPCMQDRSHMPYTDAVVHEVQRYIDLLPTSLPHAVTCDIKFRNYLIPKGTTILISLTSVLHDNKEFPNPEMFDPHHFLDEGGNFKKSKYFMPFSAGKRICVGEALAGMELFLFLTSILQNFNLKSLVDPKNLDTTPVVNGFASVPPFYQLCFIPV

Chain of α1β1γδ-nAChR (P02708 21-457): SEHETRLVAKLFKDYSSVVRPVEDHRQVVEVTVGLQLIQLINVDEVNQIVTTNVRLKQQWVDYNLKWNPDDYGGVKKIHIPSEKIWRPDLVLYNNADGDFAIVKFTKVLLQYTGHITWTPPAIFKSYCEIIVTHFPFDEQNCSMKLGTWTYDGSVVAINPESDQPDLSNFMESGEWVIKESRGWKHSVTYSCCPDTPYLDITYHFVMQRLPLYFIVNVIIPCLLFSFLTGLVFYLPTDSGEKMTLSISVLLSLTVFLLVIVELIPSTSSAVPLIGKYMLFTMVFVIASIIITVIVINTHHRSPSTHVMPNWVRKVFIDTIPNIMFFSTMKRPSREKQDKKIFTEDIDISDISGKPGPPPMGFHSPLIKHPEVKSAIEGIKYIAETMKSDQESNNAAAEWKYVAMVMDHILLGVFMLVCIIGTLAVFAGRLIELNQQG
Chain of α1β1γδ-nAChR (P11230 24-501 partner): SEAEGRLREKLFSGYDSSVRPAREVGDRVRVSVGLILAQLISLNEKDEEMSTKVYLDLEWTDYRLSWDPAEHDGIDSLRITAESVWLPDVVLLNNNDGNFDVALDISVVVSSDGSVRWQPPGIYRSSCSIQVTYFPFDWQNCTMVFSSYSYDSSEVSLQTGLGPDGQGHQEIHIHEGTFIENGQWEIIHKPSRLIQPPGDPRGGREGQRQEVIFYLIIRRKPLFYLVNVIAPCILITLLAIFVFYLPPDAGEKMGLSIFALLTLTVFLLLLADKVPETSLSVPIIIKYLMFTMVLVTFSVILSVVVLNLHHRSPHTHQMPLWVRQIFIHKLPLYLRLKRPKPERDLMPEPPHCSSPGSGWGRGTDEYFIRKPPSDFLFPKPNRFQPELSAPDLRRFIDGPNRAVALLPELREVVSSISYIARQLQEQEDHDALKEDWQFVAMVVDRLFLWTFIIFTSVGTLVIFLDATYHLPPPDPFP
Chain of α1β1γδ-nAChR (P07510 23-517): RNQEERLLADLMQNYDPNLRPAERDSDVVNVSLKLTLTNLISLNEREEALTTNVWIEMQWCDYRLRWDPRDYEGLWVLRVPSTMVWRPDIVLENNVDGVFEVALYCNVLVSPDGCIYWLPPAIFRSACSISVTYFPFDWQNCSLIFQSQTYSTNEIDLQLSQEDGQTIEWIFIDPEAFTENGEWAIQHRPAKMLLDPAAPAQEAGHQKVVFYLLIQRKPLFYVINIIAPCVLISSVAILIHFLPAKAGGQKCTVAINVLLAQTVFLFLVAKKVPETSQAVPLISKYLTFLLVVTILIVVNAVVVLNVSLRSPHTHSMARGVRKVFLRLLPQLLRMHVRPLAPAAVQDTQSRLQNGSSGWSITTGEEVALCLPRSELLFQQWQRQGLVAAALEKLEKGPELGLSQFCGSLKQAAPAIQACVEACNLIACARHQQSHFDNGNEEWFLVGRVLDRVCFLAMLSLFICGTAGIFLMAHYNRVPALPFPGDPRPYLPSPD
Chain of α1β1γδ-nAChR (Q07001 22-517): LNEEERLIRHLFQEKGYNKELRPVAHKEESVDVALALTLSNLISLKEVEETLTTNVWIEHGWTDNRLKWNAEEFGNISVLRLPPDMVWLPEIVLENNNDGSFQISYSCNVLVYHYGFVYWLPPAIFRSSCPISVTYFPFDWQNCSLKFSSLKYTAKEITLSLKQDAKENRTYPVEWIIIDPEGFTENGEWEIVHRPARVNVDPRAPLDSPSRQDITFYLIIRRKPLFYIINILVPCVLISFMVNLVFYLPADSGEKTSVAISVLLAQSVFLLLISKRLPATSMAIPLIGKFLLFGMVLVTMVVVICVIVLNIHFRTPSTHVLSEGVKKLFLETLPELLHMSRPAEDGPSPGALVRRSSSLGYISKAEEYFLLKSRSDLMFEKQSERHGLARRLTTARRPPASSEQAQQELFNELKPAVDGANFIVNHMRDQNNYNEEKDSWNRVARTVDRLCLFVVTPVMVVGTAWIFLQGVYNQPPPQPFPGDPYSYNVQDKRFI
Chain of CYP3A4 (P08684 whole entry): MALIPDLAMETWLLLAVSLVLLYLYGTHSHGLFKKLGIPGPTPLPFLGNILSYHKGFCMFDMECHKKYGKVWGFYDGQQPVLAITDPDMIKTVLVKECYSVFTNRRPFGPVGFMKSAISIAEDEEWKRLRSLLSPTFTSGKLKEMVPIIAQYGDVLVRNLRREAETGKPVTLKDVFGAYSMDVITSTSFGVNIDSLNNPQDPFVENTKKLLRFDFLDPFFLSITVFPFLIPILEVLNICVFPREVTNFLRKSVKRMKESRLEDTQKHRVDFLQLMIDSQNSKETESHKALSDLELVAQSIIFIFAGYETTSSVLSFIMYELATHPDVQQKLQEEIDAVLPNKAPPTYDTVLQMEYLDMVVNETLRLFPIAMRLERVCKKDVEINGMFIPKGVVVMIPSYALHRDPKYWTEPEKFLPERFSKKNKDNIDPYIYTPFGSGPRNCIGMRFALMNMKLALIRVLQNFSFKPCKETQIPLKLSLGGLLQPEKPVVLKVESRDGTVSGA
Chain of CYP2D6 (P10635 whole entry): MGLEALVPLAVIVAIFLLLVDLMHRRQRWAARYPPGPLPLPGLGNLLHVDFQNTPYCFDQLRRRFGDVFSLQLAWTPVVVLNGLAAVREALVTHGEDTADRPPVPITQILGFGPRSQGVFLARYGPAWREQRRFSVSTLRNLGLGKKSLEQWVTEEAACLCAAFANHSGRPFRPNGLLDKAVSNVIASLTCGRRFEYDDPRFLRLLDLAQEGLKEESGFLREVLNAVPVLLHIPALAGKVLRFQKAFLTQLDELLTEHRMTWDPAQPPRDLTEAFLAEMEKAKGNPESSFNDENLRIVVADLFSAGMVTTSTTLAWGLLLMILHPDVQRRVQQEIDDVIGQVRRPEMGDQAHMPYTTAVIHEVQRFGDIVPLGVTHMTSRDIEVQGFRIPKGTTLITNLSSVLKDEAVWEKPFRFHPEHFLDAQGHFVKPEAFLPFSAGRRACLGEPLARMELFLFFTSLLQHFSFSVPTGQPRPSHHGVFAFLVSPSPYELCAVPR
Chain of human α4β2-nAChR (P43681 29-627 limits assumed): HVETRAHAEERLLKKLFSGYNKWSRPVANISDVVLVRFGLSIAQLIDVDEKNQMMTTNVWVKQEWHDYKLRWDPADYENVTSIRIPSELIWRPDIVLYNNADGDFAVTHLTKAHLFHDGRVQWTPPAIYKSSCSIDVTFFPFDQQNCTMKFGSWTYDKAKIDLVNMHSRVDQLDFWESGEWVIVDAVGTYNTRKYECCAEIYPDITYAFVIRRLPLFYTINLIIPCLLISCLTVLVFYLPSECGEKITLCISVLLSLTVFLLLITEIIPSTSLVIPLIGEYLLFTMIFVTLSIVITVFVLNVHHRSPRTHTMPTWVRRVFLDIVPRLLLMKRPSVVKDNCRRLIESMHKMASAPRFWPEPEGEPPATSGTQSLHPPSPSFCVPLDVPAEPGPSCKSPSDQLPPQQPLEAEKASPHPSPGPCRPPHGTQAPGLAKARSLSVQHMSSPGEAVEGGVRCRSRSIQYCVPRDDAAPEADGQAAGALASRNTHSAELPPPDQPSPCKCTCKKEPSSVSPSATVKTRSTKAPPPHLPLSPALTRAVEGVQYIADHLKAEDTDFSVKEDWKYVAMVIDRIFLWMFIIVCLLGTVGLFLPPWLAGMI
Chain of human α4β2-nAChR (P17787 26-502): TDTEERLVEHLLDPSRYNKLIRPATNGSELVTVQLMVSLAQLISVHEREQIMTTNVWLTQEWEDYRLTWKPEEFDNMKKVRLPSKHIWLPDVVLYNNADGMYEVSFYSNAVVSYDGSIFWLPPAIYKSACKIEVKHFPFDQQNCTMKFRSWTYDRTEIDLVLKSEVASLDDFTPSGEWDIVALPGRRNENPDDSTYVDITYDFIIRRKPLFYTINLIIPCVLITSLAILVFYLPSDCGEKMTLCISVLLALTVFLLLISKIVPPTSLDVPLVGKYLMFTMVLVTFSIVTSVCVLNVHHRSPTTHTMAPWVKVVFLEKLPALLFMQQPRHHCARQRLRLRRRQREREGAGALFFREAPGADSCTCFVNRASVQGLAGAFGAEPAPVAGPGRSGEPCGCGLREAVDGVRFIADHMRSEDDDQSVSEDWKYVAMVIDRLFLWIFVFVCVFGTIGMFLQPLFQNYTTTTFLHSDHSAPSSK
Chain of CYP2C19 (P33261 whole entry): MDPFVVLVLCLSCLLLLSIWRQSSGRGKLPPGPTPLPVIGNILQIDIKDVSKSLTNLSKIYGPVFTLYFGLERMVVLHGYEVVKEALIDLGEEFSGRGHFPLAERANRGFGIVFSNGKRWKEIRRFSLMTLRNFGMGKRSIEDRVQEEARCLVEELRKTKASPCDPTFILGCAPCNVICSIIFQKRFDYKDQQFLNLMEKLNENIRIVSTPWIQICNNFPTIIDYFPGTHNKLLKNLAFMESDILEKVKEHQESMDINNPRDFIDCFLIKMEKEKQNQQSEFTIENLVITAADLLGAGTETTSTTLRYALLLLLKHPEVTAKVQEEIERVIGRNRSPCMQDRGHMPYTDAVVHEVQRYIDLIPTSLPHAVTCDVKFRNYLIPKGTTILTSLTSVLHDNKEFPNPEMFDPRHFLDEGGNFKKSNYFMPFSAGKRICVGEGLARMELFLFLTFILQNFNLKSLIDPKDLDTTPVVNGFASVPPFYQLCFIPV

Cc1cc([C@H]2C[C@@H]3CC[C@H]2N3)on1 [Compound 7, epiboxidine]
Fold less potent than compound 4 in the displacement of [3H]nicotine [1]: approximately 10 fold | Fold more potent than compound 6 in the displacement of [3H]nicotine [1]: 17 fold

Clc1ccc(OC[C@H]2CCN2)cn1 [Compound 10]
Potency relative to morphine [2]: 50 times

FCc1cc(OC[C@@H]2CCN2)on1 [Compound 39, 5-[(2(S)-Azetidinyl)methoxy]-3-(fluoromethyl)isoxazole Trifluoroacetate]
Activity at the α1β1γδ-nAChR (α1β1γδ-nAChR): little activity; also recorded: inactive

Cc1cc(OC[C@@H]2CCN2)on1 [Compound 43, 5-[(2(S)-Azetidinyl)methoxy]-3-methylisoxazole]
CYP2B6 activity, % of the control (CYP2B6): ≥ 70% | Agonist activity at α4β2-nAChRs (human α4β2-nAChR): full agonist activity | Immobility in the forced swim test ([3]; 1 mg/kg ip, 30 min before test, 6 min trial, vs vehicle): reduced immobility | Immobility in the forced swim test ([3]; 1 mg/kg orally, 30 min before test, 6 min trial): inactive | Immobility in the forced swim test ([3]; 5 mg/kg ip, 30 min before test, 6 min trial, vs vehicle): reduced immobility | Activity at the α1β1γδ-nAChR (α1β1γδ-nAChR): little activity; also recorded: inactive | CYP2C19 activity, % of the control (CYP2C19): ≥ 70% | CYP1A2 activity, % of the control (CYP1A2): ≥ 70% | Inhibition in the preliminary binding screen [4]: ≤ 50% | CYP2D6 activity, % of the control (CYP2D6): ≥ 70% | CYP3A4 activity, % of the control (CYP3A4): ≥ 70% | Agonist activity at α3β4*-nAChRs (α3β4*-nAChR): full agonist activity | CYP2C9 activity, % of the control (CYP2C9): ≥ 70%

CN[C@H]1CC[C@@H](c2ccc(Cl)c(Cl)c2)c2ccccc21 [sertraline, reference compound]
Immobility in the forced swim test ([3]; positive control, 10 mg/kg (10 or 20 mg/kg in method), ip or orally): expected decrease in immobility
